{"source": "paper PMC7072352", "about": "“Venetoclax, a BCL-2 Inhibitor, Enhances the Efficacy of Chemotherapeutic Agents in Wild-Type ABCG2-Overexpression-Mediated MDR Cancer Cells” (Cancers, 2020)", "target": "T1, ABCG2 (breast cancer resistance protein, BCRP) (Homo sapiens, UniProt Q9UNQ0)", "T1 construct": "wild-type ABCG2 (R482) in overexpressing cell membranes", "T1 sequence (Q9UNQ0 1-655)": "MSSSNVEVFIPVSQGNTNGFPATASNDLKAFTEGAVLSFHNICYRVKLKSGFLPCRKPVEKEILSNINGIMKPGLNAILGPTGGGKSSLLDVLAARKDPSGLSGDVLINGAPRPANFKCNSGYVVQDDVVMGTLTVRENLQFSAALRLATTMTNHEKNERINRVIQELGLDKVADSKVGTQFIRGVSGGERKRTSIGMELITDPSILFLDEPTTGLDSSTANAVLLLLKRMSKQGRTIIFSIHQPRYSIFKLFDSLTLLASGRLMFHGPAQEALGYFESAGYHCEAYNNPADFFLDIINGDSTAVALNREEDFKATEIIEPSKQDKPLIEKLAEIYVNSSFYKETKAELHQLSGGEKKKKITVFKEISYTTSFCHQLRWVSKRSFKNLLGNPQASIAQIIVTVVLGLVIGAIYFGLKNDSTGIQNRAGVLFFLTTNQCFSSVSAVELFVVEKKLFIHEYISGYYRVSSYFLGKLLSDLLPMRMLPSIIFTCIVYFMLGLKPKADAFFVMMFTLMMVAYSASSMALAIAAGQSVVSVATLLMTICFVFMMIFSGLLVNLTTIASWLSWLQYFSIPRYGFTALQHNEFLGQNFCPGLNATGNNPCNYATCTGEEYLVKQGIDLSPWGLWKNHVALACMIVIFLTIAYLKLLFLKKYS", "assay": "vanadate-sensitive ATPase assay in ABCG2-overexpressing cell membranes; [3H]-mitoxantrone accumulation and efflux in cells", "assay_type": "biochemical", "data": [{"molecule": "CC1(C)CCC(CN2CCN(c3ccc(C(=O)NS(=O)(=O)c4ccc(NCC5CCOCC5)c([N+](=O)[O-])c4)c(Oc4cnc5[nH]ccc5c4)c3)CC2)=C(c2ccc(Cl)cc2)C1", "note": "[venetoclax]", "values": [{"measurement": "IC50", "value": 4.78, "unit": "µM"}]}]}
